ChEMBL document CHEMBL3627634, “Synthesis of novel benzohydrazone-oxadiazole hybrids as β-glucuronidase inhibitors and molecular modeling studies” (Bioorg Med Chem, 2015)

Target: T1, Beta-glucuronidase (Bos taurus, UniProt A3KMY8)
T1 sequence (A3KMY8 whole entry): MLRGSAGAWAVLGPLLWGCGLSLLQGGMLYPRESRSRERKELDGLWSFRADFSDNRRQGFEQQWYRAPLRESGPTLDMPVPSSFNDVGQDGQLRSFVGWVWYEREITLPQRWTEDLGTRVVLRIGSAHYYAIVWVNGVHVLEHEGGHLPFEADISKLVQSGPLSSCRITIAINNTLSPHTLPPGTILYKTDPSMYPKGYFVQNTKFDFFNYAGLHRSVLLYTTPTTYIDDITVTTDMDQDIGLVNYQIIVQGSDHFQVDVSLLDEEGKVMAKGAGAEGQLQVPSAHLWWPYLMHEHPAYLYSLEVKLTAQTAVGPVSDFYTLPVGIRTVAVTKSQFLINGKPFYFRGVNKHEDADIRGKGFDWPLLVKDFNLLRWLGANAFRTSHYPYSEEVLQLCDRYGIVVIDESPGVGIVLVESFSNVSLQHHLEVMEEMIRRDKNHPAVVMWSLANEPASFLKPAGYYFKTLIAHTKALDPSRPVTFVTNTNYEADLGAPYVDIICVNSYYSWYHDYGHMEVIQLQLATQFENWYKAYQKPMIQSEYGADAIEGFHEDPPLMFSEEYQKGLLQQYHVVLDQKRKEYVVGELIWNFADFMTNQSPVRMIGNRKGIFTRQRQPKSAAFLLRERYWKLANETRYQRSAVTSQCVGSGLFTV
Assay: Inhibition of bovine liver beta-glucuronidase using p-nitrophenyl-beta-D-glucuronide as substrate assessed as p-nitrophenol formation after 30 mins by multiplate reader analysis
Conditions: not given; call rule not given here

| SMILES | IC50 |
| --- | --- |
| O=C(N/N=C/c1cccc(Cl)c1)c1ccc(-c2nnc(-c3ccccc3O)o2)cc1 | Not Active |
| Cc1cccc(/C=N/NC(=O)c2ccc(-c3nnc(-c4ccccc4O)o3)cc2)c1 | Not Active |
| Cc1ccccc1/C=N/NC(=O)c1ccc(-c2nnc(-c3ccccc3O)o2)cc1 | Not Active |
| O=C(N/N=C/c1cccnc1)c1ccc(-c2nnc(-c3ccccc3O)o2)cc1 | Not Active |
| O=C(N/N=C/c1ccccc1[N+](=O)[O-])c1ccc(-c2nnc(-c3ccccc3O)o2)cc1 | Not Active |
| O=C(N/N=C/c1cccc(F)c1)c1ccc(-c2nnc(-c3ccccc3O)o2)cc1 | Not Active |
| O=C(N/N=C/c1ccccc1Cl)c1ccc(-c2nnc(-c3ccccc3O)o2)cc1 | Not Active |
| O=C(N/N=C/c1ccncc1)c1ccc(-c2nnc(-c3ccccc3O)o2)cc1 | Not Active |
| Cc1ccc(/C=N/NC(=O)c2ccc(-c3nnc(-c4ccccc4O)o3)cc2)cc1 | Not Active |
| O=C(N/N=C/c1ccc(F)cc1)c1ccc(-c2nnc(-c3ccccc3O)o2)cc1 | Not Active |
| COc1ccccc1/C=N/NC(=O)c1ccc(-c2nnc(-c3ccccc3O)o2)cc1 | Not Active |

Same assay, conditions: read-out: IC50

| SMILES | IC50 |
| --- | --- |
| O=C(N/N=C/c1cc(O)ccc1O)c1ccc(-c2nnc(-c3ccccc3O)o2)cc1 | 15.1 µM |
| O=C(N/N=C/c1ccc([N+](=O)[O-])cc1)c1ccc(-c2nnc(-c3ccccc3O)o2)cc1 | 44.2 µM |
| COc1ccc(O)c(/C=N/NC(=O)c2ccc(-c3nnc(-c4ccccc4O)o3)cc2)c1 | 88.1 µM |
| O=C(N/N=C/c1cccc(O)c1)c1ccc(-c2nnc(-c3ccccc3O)o2)cc1 | 34.5 µM |
| O=C(N/N=C/c1ccccc1F)c1ccc(-c2nnc(-c3ccccc3O)o2)cc1 | 108 µM |
| O=C(N/N=C/c1ccc(Cl)cc1)c1ccc(-c2nnc(-c3ccccc3O)o2)cc1 | 86.1 µM |
| O=C(N/N=C/c1cccc([N+](=O)[O-])c1)c1ccc(-c2nnc(-c3ccccc3O)o2)cc1 | 64.1 µM |
| O=C(N/N=C/c1ccc(O)c(O)c1)c1ccc(-c2nnc(-c3ccccc3O)o2)cc1 | 29.2 µM |
| O=C(N/N=C/c1ccc(O)cc1)c1ccc(-c2nnc(-c3ccccc3O)o2)cc1 | 18.5 µM |
| O=C(N/N=C/c1cc(O)c(O)cc1O)c1ccc(-c2nnc(-c3ccccc3O)o2)cc1 | 21.1 µM |
| O=C(N/N=C/c1ccccc1O)c1ccc(-c2nnc(-c3ccccc3O)o2)cc1 | 91.4 µM |
| O=C(N/N=C/c1c(O)cc(O)cc1O)c1ccc(-c2nnc(-c3ccccc3O)o2)cc1 | 82.2 µM |
| O=C(N/N=C/c1ccccn1)c1ccc(-c2nnc(-c3ccccc3O)o2)cc1 | 42.3 µM |
| COc1ccc(/C=N/NC(=O)c2ccc(-c3nnc(-c4ccccc4O)o3)cc2)cc1O | 7.14 µM |
